Data from publication PMC6352943, “Novel pyrazolo[3,4-d]pyrimidines: design, synthesis, anticancer activity, dual EGFR/ErbB2 receptor tyrosine kinases inhibitory activity, effects on cell cycle profile and caspase-3-mediated apoptosis” (Journal of Enzyme Inhibition and Medicinal Chemistry, 2019).

How the values were obtained:
OVCAR-4 = experiment: MTT cell viability assay; type: cell-based, human; conditions: Homo sapiens; OVCAR-4 ovarian cancer, MTT, 48 h, mean ± SD of three experiments; read-out: IC50 (concentration required for 50% inhibition of cell viability)
Method: (§1) Cell Line cells were obtained from American Type Culture Collection, cells were cultured using Dulbecco's Modified Eagle's medium (DMEM) (Invitrogen/Life Technologies) supplemented with 10% foetal bovine serum (FBS) (Hyclone), 10 μg/mL of insulin (Sigma), and 1% penicillin-streptomycin. All of the other chemicals and reagents were from Sigma, or Invitrogen. Plate cells (cells density 1.2 – 1.8 × 10,000 cells/well) in a volume of 100 µL complete growth medium and 100 μL of the tested compound per well in a 96-well plate for 24 h before the MTT assay.
(§2) Remove culture medium to a centrifuge tube. […] Add 2.0 to 3.0 ml of Trypsin EDTA solution to flask and observe cells under an inverted microscope until cell layer is dispersed. Add 6 to 8 ml of complete growth medium and aspirate cells by gently pipetting. Transfer the cell suspension to the centrifuge tube with the medium and centrifuge for 5 to 10 min. Discard the supernatant. Resuspend the cell pellet in fresh growth medium. Add appropriate aliquots of the cell suspension to new culture vessels. Incubate cultures at 37 °C for 24 h. After treatment of cells with the serial concentrations of the compound to be tested incubation is carried out for 48 h at 37 °C, then the plates are to be examined under the inverted microscope and proceed for the MTT assay.
(§3) The 3–(4, 5-dimethylthiazol-2-yl)-2,5-diphenyltetrazolium bromide (MTT) method[30] of monitoring in vitro cytotoxicity is well suited for use with multiwell plates. The assessment of cell population growth is based on the capability of living cells to reduce the yellow product MTT to a blue product, formazan, by a reduction reaction occurring in the mitochondria. The five cell lines were incubated for 24 h in 96-microwell plates. The number of living cells in the presence or absence (control) of the various test compounds is directly proportional to the intensity of the blue colour, measured by spectrophotometry using (ROBONIK P2000 Spectrophotometer) at a wavelength of 570 nm. Measure the background absorbance of multiwell plates at 690 nm and subtract from the 570 nm measurement. Five concentrations ranging from 0.01 μM to 100 μM (with semi-log decrease in concentration) were tested for each of the compounds under study. Each experiment was carried out in triplicate. The IC50 values [the concentration required for 50% inhibition of cell viability] were calculated using sigmoidal dose response curve-fitting models.

NCI-H460 = experiment: MTT cell viability assay; type: cell-based, human; conditions: Homo sapiens; NCI-H460 lung cancer, MTT, 48 h, mean ± SD of three experiments; read-out: IC50 (concentration required for 50% inhibition of cell viability)
Method: as §1, §2, §3

ACHN = experiment: MTT cell viability assay; type: cell-based, human; conditions: Homo sapiens; ACHN renal cancer, MTT, 48 h, mean ± SD of three experiments; read-out: IC50 (concentration required for 50% inhibition of cell viability)
Method: as §1, §2, §3

Compound: Cc1nn(-c2ccc(F)cc2)c2ncnc(NN=Cc3ccncc3)c12 [Compound 10d, 1–(4-Fluorophenyl)-3-methyl-4–(2-(pyridin-4-yl-methylidene) hydrazinyl)-1H-pyrazolo[3,4-d]pyrimidine]
- melting point: 262 to 264 °C

Compound: C#Cc1cccc(Nc2ncnc3cc(OCCOC)c(OCCOC)cc23)c1 [Erlotinib, reference compound]
- IC50 (OVCAR-4): 2.79 ± 0.41 µM
- IC50 (NCI-H460): 8.36 ± 0.69 µM
- IC50 (ACHN): 12.4 ± 1.88 µM
